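Exposure lasted 48 hours, with cells grown in 96-well plates and compounds tested at five concentrations. Here, GI50 denotes the concentration required for 50% inhibition of growth. Definition used: TGI = concentration required for complete inhibition of growth.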
Experiments:
Assay in all cases: growth of human tumour cells (NCI), 48 h
OVCAR-8 ovarian = test system: OVCAR-8 ovarian
SN12C renal = test system: SN12C renal
A549 NSCLC = test system: A549 NSCLC
OVCAR-4 ovarian = test system: OVCAR-4 ovarian
UO-31 renal = test system: UO-31 renal
SF-295 CNS = test system: SF-295 CNS
K-562 leukemia = test system: K-562 leukemia
HCT-15 colon = test system: HCT-15 colon
MALME-3M melanoma = test system: MALME-3M melanoma
HS 578T breast = test system: HS 578T breast
SF-539 CNS = test system: SF-539 CNS
MCF7 breast = test system: MCF7 breast
UACC-257 melanoma = test system: UACC-257 melanoma
CAKI-1 renal = test system: CAKI-1 renal
LOX IMVI melanoma = test system: LOX IMVI melanoma
RPMI-8226 leukemia = test system: RPMI-8226 leukemia
MDA-MB-231 breast = test system: MDA-MB-231 breast
DU-145 prostate = test system: DU-145 prostate
RXF 393 renal = test system: RXF 393 renal
HOP-92 NSCLC = test system: HOP-92 NSCLC
786-0 renal = test system: 786-0 renal
ACHN renal = test system: ACHN renal
OVCAR-3 ovarian = test system: OVCAR-3 ovarian
MDA-MB-435 = test system: MDA-MB-435
BT-549 breast = test system: BT-549 breast
HOP-62 NSCLC = test system: HOP-62 NSCLC
HT29 colon = test system: HT29 colon
KM12 colon = test system: KM12 colon
SK-OV-3 ovarian = test system: SK-OV-3 ovarian
IGROV1 ovarian = test system: IGROV1 ovarian
NCI-H23 lung = test system: NCI-H23 lung
OVCAR-5 ovarian = test system: OVCAR-5 ovarian
PC-3 prostate = test system: PC-3 prostate
SK-MEL-28 melanoma = test system: SK-MEL-28 melanoma
HCT-116 colon = test system: HCT-116 colon
COLO 205 colon = test system: COLO 205 colon
TK-10 renal = test system: TK-10 renal
SK-MEL-5 melanoma = test system: SK-MEL-5 melanoma
NCI-H226 lung = test system: NCI-H226 lung
HCC-2998 colon = test system: HCC-2998 colon
M14 melanoma = test system: M14 melanoma
UACC-62 melanoma = test system: UACC-62 melanoma
SW-620 colon = test system: SW-620 colon
NCI-H460 lung = test system: NCI-H460 lung
NCI/ADR-RES ovarian = test system: NCI/ADR-RES ovarian
SK-MEL-2 melanoma = test system: SK-MEL-2 melanoma
SF-268 CNS = test system: SF-268 CNS
U251 CNS = test system: U251 CNS
SNB-75 CNS = test system: SNB-75 CNS
CCRF-CEM leukemia = test system: CCRF-CEM leukemia
SR leukemia = test system: SR leukemia
MDA-N = test system: MDA-N
A498 renal = test system: A498 renal
MOLT-4 leukemia = test system: MOLT-4 leukemia
EKVX NSCLC = test system: EKVX NSCLC
SNB-19 CNS = test system: SNB-19 CNS
HL-60(TB) leukemia = test system: HL-60(TB) leukemia
NCI-H522 lung = test system: NCI-H522 lung
T-47D breast = test system: T-47D breast

## CC/C(Cl)=N\OC(=O)Nc1ccc(F)c([N+](=O)[O-])c1
OVCAR-8 ovarian
  TGI: 32.8 µM
SN12C renal
  TGI: 47.1 µM
A549 NSCLC
  TGI: 43.4 µM
OVCAR-4 ovarian
  TGI: 14.7 µM
UO-31 renal
  TGI: 14.2 µM
SF-295 CNS
  TGI: 41.6 µM
K-562 leukemia
  TGI: > 24.5 µM
HCT-15 colon
  TGI: 19.8 µM
MALME-3M melanoma
  TGI: 4.35 µM
HS 578T breast
  TGI: 31.7 µM
SF-539 CNS
  TGI: > 100 µM
MCF7 breast
  TGI: > 37.8 µM
UACC-257 melanoma
  TGI: 35.1 µM
CAKI-1 renal
  TGI: 7.7 µM
LOX IMVI melanoma
  TGI: > 48.9 µM
RPMI-8226 leukemia
  TGI: > 25.3 µM
MDA-MB-231 breast
  TGI: 34.9 µM
DU-145 prostate
  TGI: 36.9 µM
RXF 393 renal
  TGI: 30.4 µM
HOP-92 NSCLC
  TGI: 12 µM
786-0 renal
  TGI: 26.8 µM
ACHN renal
  TGI: 4.78 µM
OVCAR-3 ovarian
  TGI: 18.3 µM
MDA-MB-435
  TGI: 33.5 µM
BT-549 breast
  TGI: 31.5 µM
HOP-62 NSCLC
  TGI: 35 µM
HT29 colon
  TGI: > 57.8 µM
KM12 colon
  TGI: 34.2 µM
SK-OV-3 ovarian
  TGI: 34.5 µM
IGROV1 ovarian
  TGI: 33.8 µM
NCI-H23 lung
  TGI: 35.6 µM
OVCAR-5 ovarian
  TGI: 44.9 µM
PC-3 prostate
  TGI: 32.4 µM
SK-MEL-28 melanoma
  TGI: 33.9 µM
HCT-116 colon
  TGI: 30.6 µM
COLO 205 colon
  TGI: 6.58 µM
TK-10 renal
  TGI: 26.1 µM
SK-MEL-5 melanoma
  TGI: 29.5 µM
NCI-H226 lung
  TGI: > 100 µM
HCC-2998 colon
  TGI: > 100 µM
M14 melanoma
  TGI: > 53.6 µM
UACC-62 melanoma
  TGI: 35.8 µM
SW-620 colon
  TGI: 33.6 µM
NCI-H460 lung
  TGI: > 100 µM
NCI/ADR-RES ovarian
  TGI: 75.8 µM
SK-MEL-2 melanoma
  TGI: 32 µM
SF-268 CNS
  TGI: 36.4 µM
U251 CNS
  TGI: 46.3 µM
SNB-75 CNS
  TGI: 38.9 µM
CCRF-CEM leukemia
  TGI: > 20 µM
SR leukemia
  TGI: > 68.6 µM
MDA-N
  TGI: 39.6 µM
A498 renal
  TGI: 39.4 µM
MOLT-4 leukemia
  TGI: > 36.3 µM
EKVX NSCLC
  TGI: 35.6 µM
SNB-19 CNS
  TGI: 33.7 µM

## CN1CCN(c2ccc(Nc3ncc4cc(C#N)c(=O)n(C5CCCC5)c4n3)cc2)CC1
OVCAR-8 ovarian
  GI50: 3.18 µM
  TGI: > 47.9 µM
SN12C renal
  GI50: 917 nM
  TGI: 15.5 µM
A549 NSCLC
  GI50: 2050 nM
  TGI: > 100 µM
OVCAR-4 ovarian
  GI50: 3.08 µM
  TGI: > 100 µM
UO-31 renal
  GI50: 218 nM
  TGI: 7.03 µM
SF-295 CNS
  GI50: 1190 nM
  TGI: > 42.6 µM
K-562 leukemia
  GI50: 1250 nM
  TGI: > 100 µM
HCT-15 colon
  GI50: 940 nM
  TGI: > 100 µM
MALME-3M melanoma
  GI50: 1900 nM
  TGI: > 100 µM
HS 578T breast
  GI50: 807 nM
  TGI: 6.07 µM
SF-539 CNS
  GI50: 1280 nM
  TGI: 3.27 µM
MCF7 breast
  GI50: 346 nM
  TGI: > 100 µM
UACC-257 melanoma
  GI50: 4.02 µM
  TGI: > 100 µM
CAKI-1 renal
  GI50: 346 nM
  TGI: 17.3 µM
LOX IMVI melanoma
  GI50: 580 nM
  TGI: 3.51 µM
RPMI-8226 leukemia
  GI50: 870 nM
  TGI: 5.33 µM
DU-145 prostate
  GI50: 2130 nM
  TGI: > 100 µM
RXF 393 renal
  GI50: 477 nM
  TGI: 2.23 µM
786-0 renal
  GI50: 693 nM
  TGI: 4.11 µM
ACHN renal
  GI50: 309 nM
  TGI: 13.5 µM
HL-60(TB) leukemia
  GI50: 595 nM
  TGI: 4.2 µM
OVCAR-3 ovarian
  GI50: 2940 nM
  TGI: > 24.2 µM
MDA-MB-435
  GI50: 3.1 µM
  TGI: > 100 µM
BT-549 breast
  GI50: 2650 nM
  TGI: 7.58 µM
HOP-62 NSCLC
  GI50: 2190 nM
  TGI: > 25.5 µM
HT29 colon
  GI50: 600 nM
  TGI: > 100 µM
KM12 colon
  GI50: 1520 nM
  TGI: > 100 µM
SK-OV-3 ovarian
  GI50: 4.41 µM
  TGI: > 100 µM
IGROV1 ovarian
  GI50: 605 nM
  TGI: > 23.3 µM
OVCAR-5 ovarian
  GI50: 942 nM
  TGI: > 100 µM
PC-3 prostate
  GI50: 611 nM
  TGI: > 23.2 µM
SK-MEL-28 melanoma
  GI50: 3.54 µM
  TGI: > 100 µM
HCT-116 colon
  GI50: 587 nM
  TGI: > 100 µM
COLO 205 colon
  GI50: 797 nM
  TGI: > 100 µM
TK-10 renal
  GI50: 820 nM
  TGI: > 24.2 µM
SK-MEL-5 melanoma
  GI50: 3.17 µM
  TGI: > 100 µM
NCI-H226 lung
  GI50: 840 nM
  TGI: 10.6 µM
HCC-2998 colon
  GI50: 2800 nM
  TGI: > 100 µM
M14 melanoma
  GI50: 1390 nM
  TGI: > 100 µM
NCI-H522 lung
  GI50: 4.29 µM
  TGI: > 100 µM
UACC-62 melanoma
  GI50: 4 µM
  TGI: > 100 µM
SW-620 colon
  GI50: 451 nM
  TGI: > 100 µM
T-47D breast
  GI50: 2320 nM
  TGI: > 100 µM
NCI-H460 lung
  GI50: 640 nM
  TGI: > 49.3 µM
NCI/ADR-RES ovarian
  GI50: 2940 nM
  TGI: > 33 µM
SK-MEL-2 melanoma
  GI50: 4.87 µM
  TGI: > 62.8 µM
SF-268 CNS
  GI50: 1480 nM
  TGI: 4.95 µM
U251 CNS
  GI50: 1740 nM
  TGI: > 100 µM
SNB-75 CNS
  GI50: 336 nM
  TGI: 3.8 µM
CCRF-CEM leukemia
  GI50: 597 nM
  TGI: > 20.9 µM
SR leukemia
  GI50: 661 nM
  TGI: 3.86 µM
A498 renal
  GI50: 199 nM
  TGI: 2.24 µM
MOLT-4 leukemia
  GI50: 300 nM
  TGI: 3.17 µM
EKVX NSCLC
  GI50: 2930 nM
  TGI: > 100 µM
SNB-19 CNS
  GI50: 1770 nM
  TGI: 18.7 µM

## CCC(=O)Nc1ccc(N=NN(C)C)cc1
OVCAR-8 ovarian
  TGI: > 100 µM
SN12C renal
  TGI: > 100 µM
A549 NSCLC
  TGI: > 100 µM
OVCAR-4 ovarian
  TGI: > 100 µM
UO-31 renal
  TGI: > 100 µM
K-562 leukemia
  TGI: > 100 µM
HCT-15 colon
  TGI: > 100 µM
MALME-3M melanoma
  TGI: > 100 µM
HS 578T breast
  TGI: > 100 µM
SF-539 CNS
  TGI: > 100 µM
MCF7 breast
  TGI: > 100 µM
UACC-257 melanoma
  TGI: > 100 µM
LOX IMVI melanoma
  TGI: > 100 µM
MDA-MB-231 breast
  TGI: > 100 µM
DU-145 prostate
  TGI: > 100 µM
RXF 393 renal
  TGI: > 100 µM
HOP-92 NSCLC
  TGI: 90.2 µM
786-0 renal
  TGI: > 100 µM
ACHN renal
  TGI: > 100 µM
HL-60(TB) leukemia
  TGI: > 100 µM
MDA-MB-435
  TGI: > 100 µM
BT-549 breast
  TGI: > 100 µM
HOP-62 NSCLC
  TGI: > 100 µM
HT29 colon
  TGI: > 100 µM
SK-OV-3 ovarian
  TGI: > 100 µM
NCI-H23 lung
  TGI: > 100 µM
OVCAR-5 ovarian
  TGI: > 100 µM
PC-3 prostate
  TGI: > 100 µM
SK-MEL-28 melanoma
  TGI: > 100 µM
HCT-116 colon
  TGI: > 100 µM
COLO 205 colon
  TGI: > 100 µM
SK-MEL-5 melanoma
  TGI: > 100 µM
NCI-H226 lung
  TGI: > 100 µM
HCC-2998 colon
  TGI: 6.64 µM
M14 melanoma
  TGI: > 100 µM
NCI-H522 lung
  TGI: > 100 µM
UACC-62 melanoma
  TGI: > 100 µM
SW-620 colon
  TGI: > 100 µM
T-47D breast
  TGI: 30.4 µM
NCI-H460 lung
  TGI: > 100 µM
NCI/ADR-RES ovarian
  TGI: > 100 µM
SK-MEL-2 melanoma
  TGI: > 100 µM
SF-268 CNS
  TGI: > 100 µM
U251 CNS
  TGI: > 100 µM
SNB-75 CNS
  TGI: > 100 µM
A498 renal
  TGI: > 100 µM
MOLT-4 leukemia
  TGI: 43.4 µM
EKVX NSCLC
  TGI: > 100 µM
SNB-19 CNS
  TGI: > 100 µM

From PubChem BioAssay (NCI)
